Values quoted from earlier work in patent US9822391B2, “Methods for monitoring methotrexate therapy” (priority 2010, dated 2017).

Columns and labels:
[1] = approximately 5-10% of individuals who do not metabolize MTX effectively; within the first few hours following once weekly administration; Chladek et al., 1998
[2] = target: AICAR transformylase (Homo sapiens, UniProt P31939); details: relative to MTX; Allegra et al., 1987
AICAR transformylase, sequence (P31939 whole entry, species assumed): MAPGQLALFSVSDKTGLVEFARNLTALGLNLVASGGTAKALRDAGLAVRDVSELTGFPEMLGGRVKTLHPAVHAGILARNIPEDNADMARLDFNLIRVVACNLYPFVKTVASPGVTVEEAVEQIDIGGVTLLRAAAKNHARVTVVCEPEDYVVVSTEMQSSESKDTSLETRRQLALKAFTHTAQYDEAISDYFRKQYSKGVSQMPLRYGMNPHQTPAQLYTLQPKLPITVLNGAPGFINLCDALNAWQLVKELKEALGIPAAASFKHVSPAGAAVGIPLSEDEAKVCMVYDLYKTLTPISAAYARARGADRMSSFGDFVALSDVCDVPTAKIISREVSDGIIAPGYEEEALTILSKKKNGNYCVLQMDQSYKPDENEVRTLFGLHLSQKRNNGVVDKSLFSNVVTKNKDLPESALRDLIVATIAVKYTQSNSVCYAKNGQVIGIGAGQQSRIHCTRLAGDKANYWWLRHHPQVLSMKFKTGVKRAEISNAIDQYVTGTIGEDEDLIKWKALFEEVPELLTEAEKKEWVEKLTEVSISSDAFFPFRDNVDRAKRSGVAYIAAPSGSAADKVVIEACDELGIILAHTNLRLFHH

| SMILES | excretion of the drug in urine [1] | fold more potent than MTX itself against AICAR transformylase [2] [fold] |
| --- | --- | --- |
| CN(Cc1cnc2nc(N)nc(N)c2n1)c1ccc(C(=O)N[C@@H](CCC(=O)O)C(=O)O)cc1 [MTX, Methotrexate] | virtually the totality of the drug excreted unchanged in the urine |  |
| CN(Cc1cnc2nc(N)nc(N)c2n1)c1ccc(C(=O)NC(CCC(=O)NC(CCC(=O)NC(CCC(=O)NC(CCC(=O)NC(CCC(=O)O)C(=O)O)C(=O)O)C(=O)O)C(=O)O)C(=O)O)cc1 (centres unmarked) [pentaglutamylated form of MTX] |  | 2500 |
